# Results from patent US8653117B2, “Composition comprising at least one oxazoline to inhibit migration of langerhans cells, and uses thereof” (Laboratoires Expanscience, priority 2001, dated 2014).
# Key:
# [1] = system: dendritic cells generated in vitro from CD34+ precursors derived from blood from the umbilical cord; experiment: Migration of dendritic cells generated in vitro from CD34+ precursors of umbilical cord blood, activated by hapten BB; assay type: cell-based; details: for inhibition at 1 µM: Dendritic cell, hapten BB; for Percentage of dendritic cells generated in vitro that migrated: BB + OX100 (1 μM)
# Method: Mononucleated cells were obtained from blood from the umbilical cord of healthy donors by centrifuging on Ficoll. The CD34+ cells were then purified by immunoselection using a specific antibody and magnetic balls (Miltenyi Biotech, Germany). The CD34+ cells were cultivated in the presence of GM-CSF (100 ng/ml), TNF-α (2.5 ng/ml) in RPMI to which 10% calf fetus serum was added for 5 days. TGF-β1, a factor that encourages differentiation of cells to the Langerhans cells […], was added on the 5th day of culture.
# Preparation of Media (Ditto Example 2).
# Cells were treated by hapten BB on the 7th day (Brandowski base, 1.17 μg/ml) for 24 h, and were then subjected to the migration test.
# Migration of LCs (Ditto Example 2).
# [2] = system: Langerhans cells freshly isolated from human skin; experiment: Migration of Langerhans cells freshly isolated from human skin, sensitized by DNSB, two-compartment Matrigel chamber; assay type: cell-based
# Method: Epidermal cell suspensions were obtained by enzymatic treatment (0.05% trypsine for 18 h at +4° C.) of fragments of normal human skin taken from plastic surgery. The suspensions obtained contain an average of 2 to 4% of LC. Obtaining suspensions containing an average of 70% of LC is based on the principle of centrifuging on density gradient (Lymphoprep™) and elimination of keratinocytes.
# The basic medium chosen for the entire study was PRMI 1640 (Gibco BRL, France). The OX100 molecule supplied by Pharmascience, with a concentration of 10^−2 M in solution in DMSO (Dimethyl Sulfoxide) was diluted in RPMI-1640 and tested at 1 μM.
# The sensitizing agent was DNSB (Sigma Aldrich), a soluble form of DNCB (dinitro-chloro-benzene) solubilized in RPMI-BSA and used at a concentration of 50 μM.
# A culture chamber system with two compartments (Falcon, Becton Dickinson, France) was used. The upper compartment is separated from the lower compartment by a membrane with 8 μm porosity, on which 50 μg/cm^2 Matrigel was deposited. […] After 18 h incubation at 37° C., the number of living cells that passed through the Matrigel and that are located in the lower compartment is counted under a microscope (the LCs are easily identifiable by their dendritic form). […]
# [3] = system: Langerhans cells (LC) and dendritic cells (DC) in mice; experiment: Migration of dendritic cells from ear skin to draining ganglions in mice sensitized by FITC hapten; assay type: in vivo; details: for Migration inhibition in %: FITC hapten; for migration of DCs to LGs (in words): OX100 alone, mice sensitized by FITC hapten
# From the text: FITC (Fluoresceine isothiocyanate, Sigma, St Louis, Mo.) was extemporaneously diluted in an acetone mix (dibutylphthalate (1:1)).
# Oxazoline OX100 and LU105 (LU 105 is an MMP inhibitor, corresponding to a peptide extract of white lupin marketed by the Expanscience Company under the brand name Actimp 193®) were supplied by “Laboratoires Expanscience” and formulated alone or association with each other in an inert vehicle compatible with a topical application (oxazoline OX100 (0.1%) LU105 (2%)). The different formulations were applied on the ears of mice twice per day for 4 consecutive days. 1.5% of FITC was applied on both ears (one treated and the other not treated (Control)) three hours after the last application.
# The effect of the two molecules was evaluated in vivo in mice. 1.5% FITC (2×5 μl) was applied on the skin of both ears. 24 h later, the mice were sacrificed and a cellular suspension was prepared from auricular and cervical ganglions (draining ganglions, hereinafter denoted GL) or from the poplital ganglions (non-draining ganglions, negative control). The tissues were cut and cells separated by filtration (100 μm filter, Falcon; Becton Dickinson) and then washed. The cells were then centrifuged for 10 minutes at 600×g (m×s^−2) on a metrizamide gradient (14.5% in RPMI 1640; 7.5% SVF). The interface cells were retrieved, rinsed and then marked with an anti-CDS86 PE-conjugated, biot-MHC CLII mAbs AC plus streptavidine-Cya (PharMingen) and analyzed by flux cytometry. Only the FITC^+, PE^+ and Cya^+ cells are counted since they represent the population of cells that migrated from the skin to GLs following the application of hapten.
# FITC (Fluoresceine isothiocyanate, Sigma, St. Louis, Mo.) was diluted extemporaneously in a mixture of acetone and dibutylphthalate (1:1).
# Oxazoline OX100 and AK100 (described above) were supplied by “Laboratoires Expanscience” and formulated alone or in association in an inert vehicle compatible with a topical application [OX100 (0.05%) AK100 (0.05%)]. The different formulations were applied on the ears of mice twice per day for 4 consecutive days. Three hours after the last application, 1.5% of FITC was applied on both ears (one treated and the other not treated (Control)).
SMILES,migration of dendritic cells generated in vitro and activated by hapten BB (in words) ([1]; 1 μM),"inhibition at 1 µM ([1]; experiment 1, 1 μM) [%]","inhibition at 1 µM ([1]; experiment 2, 1 μM) [%]","Percentage of dendritic cells generated in vitro that migrated ([1]; Experiment 1, BB alone 17) [%]","Percentage of dendritic cells generated in vitro that migrated ([1]; Experiment 2, BB alone 24) [%]",migration of LCs induced by DNSB (in words) ([2]; 1 μM),"LC migration index ([2]; DNSB + OX100 (1 μM), 18 h, control cells set to 1, DNSB alone 2.55)","Migration inhibition in % ([3]; Example 4, OX100 0.1% topical on ears twice per day for 4 days) [%]",migration of DCs to LGs (in words) ([3]; Example 4),"Migration inhibition in % ([3]; Example 5, OX100 0.05% topical on ears twice per day for 4 days) [%]",migration of DCs to LGs (in words) ([3]; Example 5),"Migration inhibition in % ([3]; Example 5, AK100 0.05% topical on ears twice per day for 4 days) [%]"
"CCCCCCCCCCCC1=NC(C)(C)CO1 [OX100, 2-undecyl-4,4-dimethyl-1,3-oxazoline]",significantly inhibits,29,15,12,20.3,significantly inhibits,0.98,30,significantly inhibits,15,significantly inhibits,
CCCCCCCCCCCC(=O)NC(C)(C)CO [AK100],,,,,,,,,,,,15
